Experimental findings from patent US11739090B2, “Substituted pyrazlo[3,4-c]pyridines as selective BTK kinase inhibitors” (JUMBO DRUG BANK CO., LTD., priority 2019, dated 2023) are described below.

Molecules are shown by their SMILES.

Holding throughout (assay type): biochemical
In one assay the target is BTK (Homo sapiens (Human), UniProt Q06187). The assay is described as follows: BTK kinase test (33P-ATP filter binding). The following applies: final ATP 5 μM. The protocol:
Experimental Example 1: BTK Kinase Test […]
(§1) buffer conditions: 20 mM HEPES (pH 7.5), 10 mM MgCl2, 1 mM EGTA, 0.02% Brij35, 0.02 mg/mL BSA, 0.1 mm Na3VO4, 2 mm DTT, 1% DMSO.
(§2) 2.1. Preparing an indicator substrate in a freshly prepared reaction buffer
(§3) 2.2. Delivering the desired cofactor to the above substrate solution
(§4) 2.3. Delivering the indicated kinase to the substrate solution and gently mixing same
(§5) 2.4. Delivering the compounds in DMSO to the kinase reaction mixture using acoustic technology (Echo550)
2.5. Initiating the reaction (final concentration of ATP: 5 μM) by delivering ^33P-ATP (final specific activity: 0.01 μci/μL) to the reaction mixture
(§6) 2.6. Incubating the kinase reaction at room temperature for 120 minutes
(§7) 2.7. Recording the reaction on P81 ion exchange paper (Whatman #3698-915)
(§8) 2.8. Washing the filter widely with 0.75% phosphoric acid
2.9. Measuring the radioactive phosphorylated substrate remaining on the filter paper. […]
the kinase activity data is expressed as the percentage of the remaining kinase activity in a test sample compared to a reaction with a carrier (dimethyl sulfoxide), and IC50 values and curve fitting are obtained using Prism4 software (GraphPad).

For the next assay, the target named is EGFR (Homo sapiens (Human), UniProt P00533). The assay is described as follows: EGFR kinase test (33P-ATP filter binding). The following applies: for The ratio of the activities of EGFR and BTK: EGFR IC50 / BTK IC50 (first figure of the cell); for IC50: final ATP 2 μM, 120 minutes at room temperature. As to the method:
(§9) Experimental Example 2: EGFR, ITK and TEC Kinase Test
as §1, §2, §3, §4, §5
(§10) 2.5. Initiating the reaction (final concentration of ATP: 2 μM, 5 μM and 5 μM respectively) by delivering ^33P-ATP (final specific activity: 0.01 μci/μL) to the reaction mixture
as §6, §7, §8
(§11) 2.9. Measuring the radioactive phosphorylated substrate remaining on the filter paper.
(§12) 3. Data analysis: the kinase activity data is expressed as the percentage of the remaining kinase activity in a test sample compared to a reaction with a carrier (dimethyl sulfoxide), and IC50 values and curve fitting are obtained using Prism4 software (GraphPad).

Another assay deals with ITK (Homo sapiens (Human), UniProt Q08881). The experiment in a line: ITK kinase test (33P-ATP filter binding). The following applies: for The ratio of the activities of ITK and BTK: ITK IC50 / BTK IC50 (second figure of the cell); for IC50: final ATP 5 μM. As to the method: as §9, §1, §2, §3, §4, §5, §10, §6, §7, §8, §11, §12
ITK, sequence (Q08881 whole entry): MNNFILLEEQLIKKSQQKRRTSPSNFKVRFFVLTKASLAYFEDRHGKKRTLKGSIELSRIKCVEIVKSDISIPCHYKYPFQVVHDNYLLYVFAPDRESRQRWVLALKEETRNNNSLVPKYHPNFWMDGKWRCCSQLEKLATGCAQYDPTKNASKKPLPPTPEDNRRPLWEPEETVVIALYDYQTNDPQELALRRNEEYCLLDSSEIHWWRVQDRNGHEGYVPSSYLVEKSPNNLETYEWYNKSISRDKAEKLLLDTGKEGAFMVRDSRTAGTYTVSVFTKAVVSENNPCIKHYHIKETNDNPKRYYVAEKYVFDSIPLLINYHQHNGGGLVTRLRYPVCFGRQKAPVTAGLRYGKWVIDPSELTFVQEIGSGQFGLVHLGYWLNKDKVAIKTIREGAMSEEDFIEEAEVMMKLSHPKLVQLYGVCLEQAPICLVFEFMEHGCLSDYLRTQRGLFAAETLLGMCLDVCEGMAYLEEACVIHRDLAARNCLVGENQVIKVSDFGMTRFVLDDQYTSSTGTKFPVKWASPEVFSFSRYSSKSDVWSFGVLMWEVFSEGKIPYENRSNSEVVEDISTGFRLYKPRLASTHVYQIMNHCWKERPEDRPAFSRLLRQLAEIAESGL
A further assay concerns the target TEC (Homo sapiens (Human), UniProt P42680). The assay is described as follows: TEC kinase test (33P-ATP filter binding). The following applies: for The ratio of the activities of TEC and BTK: TEC IC50 / BTK IC50 (third figure of the cell); for IC50: final ATP 5 μM, 120 minutes at room temperature. The protocol:
as §9, §1, §2, §3, §4, §5, §10, §6, §7, §8, §11, §12

Where [1] appears, read: Table 1, 120 minutes at room temperature.

EGFR, sequence (P00533 25-1210): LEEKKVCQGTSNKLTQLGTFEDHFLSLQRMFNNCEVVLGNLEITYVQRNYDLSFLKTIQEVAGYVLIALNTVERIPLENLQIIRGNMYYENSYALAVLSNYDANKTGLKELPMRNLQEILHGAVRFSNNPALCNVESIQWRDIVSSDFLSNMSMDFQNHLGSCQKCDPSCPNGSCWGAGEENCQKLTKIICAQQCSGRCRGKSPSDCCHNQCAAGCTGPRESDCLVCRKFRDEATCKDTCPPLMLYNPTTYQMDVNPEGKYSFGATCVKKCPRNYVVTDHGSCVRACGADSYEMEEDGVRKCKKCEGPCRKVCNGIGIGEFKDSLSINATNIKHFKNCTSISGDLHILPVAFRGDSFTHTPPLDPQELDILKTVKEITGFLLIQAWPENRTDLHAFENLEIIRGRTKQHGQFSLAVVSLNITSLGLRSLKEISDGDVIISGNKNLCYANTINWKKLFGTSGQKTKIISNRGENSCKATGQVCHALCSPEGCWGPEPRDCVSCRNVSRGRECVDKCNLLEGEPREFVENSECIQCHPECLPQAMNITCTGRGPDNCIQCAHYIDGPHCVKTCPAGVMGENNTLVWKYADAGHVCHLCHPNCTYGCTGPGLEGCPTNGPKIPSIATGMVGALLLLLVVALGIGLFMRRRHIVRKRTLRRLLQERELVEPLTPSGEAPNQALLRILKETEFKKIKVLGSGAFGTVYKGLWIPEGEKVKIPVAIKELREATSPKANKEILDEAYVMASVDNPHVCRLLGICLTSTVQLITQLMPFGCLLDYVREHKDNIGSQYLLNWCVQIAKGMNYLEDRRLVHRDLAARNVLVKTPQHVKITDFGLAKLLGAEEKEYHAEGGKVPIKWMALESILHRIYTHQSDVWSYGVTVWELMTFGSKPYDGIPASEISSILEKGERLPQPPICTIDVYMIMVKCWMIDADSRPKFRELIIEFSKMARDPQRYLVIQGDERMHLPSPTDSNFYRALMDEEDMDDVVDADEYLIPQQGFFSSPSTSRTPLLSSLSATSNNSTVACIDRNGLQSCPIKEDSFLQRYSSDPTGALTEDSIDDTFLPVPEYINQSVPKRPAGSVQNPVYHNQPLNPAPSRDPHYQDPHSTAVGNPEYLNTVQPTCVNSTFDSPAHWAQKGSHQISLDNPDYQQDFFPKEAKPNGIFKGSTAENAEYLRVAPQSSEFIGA
BTK, sequence (Q06187 whole entry): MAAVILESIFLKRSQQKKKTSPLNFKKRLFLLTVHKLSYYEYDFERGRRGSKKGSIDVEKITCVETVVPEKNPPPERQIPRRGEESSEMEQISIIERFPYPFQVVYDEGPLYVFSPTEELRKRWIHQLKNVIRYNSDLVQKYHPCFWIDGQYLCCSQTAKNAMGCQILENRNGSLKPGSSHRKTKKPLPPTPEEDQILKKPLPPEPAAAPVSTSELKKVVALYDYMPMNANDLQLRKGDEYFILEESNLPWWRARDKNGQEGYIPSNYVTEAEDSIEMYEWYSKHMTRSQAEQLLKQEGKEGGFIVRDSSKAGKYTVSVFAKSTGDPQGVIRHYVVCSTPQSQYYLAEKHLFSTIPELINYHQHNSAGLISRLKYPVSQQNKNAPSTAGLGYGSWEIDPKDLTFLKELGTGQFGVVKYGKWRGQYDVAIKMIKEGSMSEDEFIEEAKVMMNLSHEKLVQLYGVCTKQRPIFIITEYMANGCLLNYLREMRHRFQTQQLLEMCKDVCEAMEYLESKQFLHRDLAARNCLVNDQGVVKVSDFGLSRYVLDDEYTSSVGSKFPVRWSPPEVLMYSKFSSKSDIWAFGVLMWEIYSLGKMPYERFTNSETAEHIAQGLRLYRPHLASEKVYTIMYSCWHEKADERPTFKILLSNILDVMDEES
TEC, sequence (P42680 whole entry): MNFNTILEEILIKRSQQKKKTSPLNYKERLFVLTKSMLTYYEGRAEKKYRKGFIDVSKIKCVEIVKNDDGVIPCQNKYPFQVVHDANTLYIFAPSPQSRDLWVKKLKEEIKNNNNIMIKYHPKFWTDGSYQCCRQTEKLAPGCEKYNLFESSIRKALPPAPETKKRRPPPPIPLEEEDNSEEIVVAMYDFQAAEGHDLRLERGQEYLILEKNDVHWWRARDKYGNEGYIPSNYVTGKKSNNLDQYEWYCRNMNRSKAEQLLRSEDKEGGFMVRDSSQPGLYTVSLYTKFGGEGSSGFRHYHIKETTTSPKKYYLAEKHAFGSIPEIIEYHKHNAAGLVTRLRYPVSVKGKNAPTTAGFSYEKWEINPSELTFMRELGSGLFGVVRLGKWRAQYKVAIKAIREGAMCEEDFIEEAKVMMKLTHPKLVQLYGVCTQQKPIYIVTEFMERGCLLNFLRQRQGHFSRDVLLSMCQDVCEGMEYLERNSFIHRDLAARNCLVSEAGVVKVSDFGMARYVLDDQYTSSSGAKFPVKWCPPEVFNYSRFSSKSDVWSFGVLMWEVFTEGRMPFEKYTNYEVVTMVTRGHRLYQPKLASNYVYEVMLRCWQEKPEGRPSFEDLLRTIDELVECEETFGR

As usually defined, the IC50 is the point on the concentration scale where inhibition reaches its midpoint. Low values mean inhibition by little substance, high ones a need for much substance. At BTK (setting [1]), `C=CC(=O)N1CCO[C@@H](c2nn(-c3ccc(Oc4c(F)cccc4F)cc3)c3cncc(F)c23)C1` [Compound 3A] had an IC50 of 9.58 nM. This lies in the single-digit nanomolar range.
As for `C=CC(=O)N1CCC[C@@H](c2nn(-c3ccc(Oc4cc(F)cc(F)c4F)cc3)c3cncc(F)c23)C1` (single isomer, unassigned) [Compound 4A], the IC50 at BTK (setting [1]) was 11 nM; at BTK (Table 2 comparison) it was 11 nM; at EGFR, 2020 nM; at ITK (unit μM), over 10 µM; at TEC, 169 nM. Moreover, the “The ratio of the activities of EGFR and BTK” value on EGFR was found to be 183 fold. Besides, the “The ratio of the activities of ITK and BTK” value at ITK is over 909 fold. For the same compound, on TEC, the “The ratio of the activities of TEC and BTK” value is given as “fold, 15-fold”.
With `C=CC(=O)N1CCO[C@H](c2nn(-c3ccc(Oc4c(F)cccc4F)cc3)c3cncc(F)c23)C1` [Compound 3B], the IC50 at BTK (setting [1]) was 2.7 nM.
The same measure, in the same setting: with `C=CC(=O)N1CCC[C@H](c2nn(-c3ccc(Oc4cc(F)ccc4F)cc3)c3cncc(F)c23)C1` [Compound 6B] the figure was 140 nM; with `C=CC(=O)N1CCC[C@@H](c2nn(-c3ccc(Oc4cccc(F)c4F)cc3)c3cncc(F)c23)C1` (single isomer, unassigned) [Compound 5A], 31.8 nM; with `C=CC(=O)N1CCC[C@H](c2nn(-c3ccc(Oc4cc(F)cc(F)c4F)cc3)c3cncc(F)c23)C1` (single isomer, unassigned) [Compound 4B], 98.1 nM.
In the case of `C=CC(=O)N1CCC[C@@H](c2nn(-c3ccc(Oc4cc(F)ccc4F)cc3)c3cncc(F)c23)C1` [Compound 6A], the IC50 on BTK (setting [1]) was determined as 9.58 nM; at BTK (Table 2 comparison) it was 9.58 nM; on EGFR, 812 nM; at ITK (120 minutes at room temperature), 7.32 µM; at TEC, 43.2 nM. For the same compound, the “The ratio of the activities of EGFR and BTK” value at EGFR was 84 fold. For the same compound, the “The ratio of the activities of ITK and BTK” value at ITK is on record as 764 fold. Besides, the “The ratio of the activities of TEC and BTK” value on TEC was 4-fold.
